Measurements reported in BigSolDB 2.1.

CC(C)C[C@H](N)C(=O)O
solubility (mole fraction)
Conditions	283.15 K	288.15 K	293.15 K	298.15 K	303.15 K	308.15 K	313.15 K	318.15 K	323.15 K	328.15 K
in 1,4-dioxane	–	3.61e-05	5.3e-05	7.25e-05	9.39e-05	0.000122	0.000149	0.00019	0.000238	0.000309
in acetone	3.16e-05	4.52e-05	6.31e-05	8.39e-05	0.00011	0.000145	0.000179	0.000218	0.000269	–
in acetonitrile	3.87e-05	4.44e-05	5.02e-05	5.71e-05	6.68e-05	7.59e-05	8.6e-05	0.000102	0.000123	–
in ethanol	0.000146	0.00015	0.000156	0.000171	0.00019	0.000206	0.000221	0.000286	0.00034	–
in ethyl acetate	0.000156	0.000169	0.000197	0.000222	0.00026	0.000303	0.000341	0.000396	0.000449	–
in isobutanol	0.000152	0.000157	0.000162	0.000175	0.000201	0.000228	0.000254	0.000304	0.00035	–
in isopropanol	0.000156	0.00016	0.000173	0.000187	0.000212	0.000254	0.000271	0.000318	0.000368	–
in methanol	0.000558	0.000588	0.000655	0.000686	0.000744	0.000817	0.000896	0.001	0.00118	–
in methyl acetate	0.000158	0.000162	0.000168	0.000178	0.000192	0.000211	0.000227	0.000254	0.000287	–
in n-butanol	2.59e-05	2.78e-05	4.16e-05	5.42e-05	7.83e-05	0.000103	0.000129	0.000171	0.000215	–
in n-propanol	9.7e-05	0.000107	0.000123	0.000142	0.000163	0.000187	0.000217	0.00026	0.000316	–
in water	0.00322	0.00326	0.00331	0.00339	0.00348	0.00358	0.00374	0.00385	0.00404	–
